Assay results reported in patent US20240109930A1, “TRIAZOLYL-METHYL SUBSTITUTED ALPHA-D-GALACTOPYRANOSIDE DERIVATIVES” (Idorsia Pharmaceuticals Ltd, priority 2021, published 2024).

Columns and labels:
human Gal-3 (hGal-3) = human Gal-3 (hGal-3) (Homo sapiens (Human), UniProt P17931); assay: Competitive binding assay: biotinylated hGal-3 binding to microplate-adsorbed asialofetuin (ASF); details: IC50 values from several measurements given as geomean
How it was run: (§1)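 Biotinylated hGal-3 or hGal-1 (preferably cysteine-free Cys→Ser mutant), 300–1000 ng/mL, competes with compound for ASF-coated wells for 3 h at 4 °C. Bound lectin detected with streptavidin-peroxidase (80 ng/mL, 1 h, 4 °C) and ABTS by absorbance; IC50 reported as geomean of several runs.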

human Gal-1 (hGal-1) = human Gal-1 (hGal-1) (Homo sapiens, UniProt P09382, C131S/C17S/C43S/C61S/C89S); assay: Competitive binding assay: biotinylated hGal-1 binding to microplate-adsorbed asialofetuin (ASF); details: IC50 values from several measurements given as geomean
How it was run: as §1

human Gal-3 (hGal-3), sequence (P17931 whole entry): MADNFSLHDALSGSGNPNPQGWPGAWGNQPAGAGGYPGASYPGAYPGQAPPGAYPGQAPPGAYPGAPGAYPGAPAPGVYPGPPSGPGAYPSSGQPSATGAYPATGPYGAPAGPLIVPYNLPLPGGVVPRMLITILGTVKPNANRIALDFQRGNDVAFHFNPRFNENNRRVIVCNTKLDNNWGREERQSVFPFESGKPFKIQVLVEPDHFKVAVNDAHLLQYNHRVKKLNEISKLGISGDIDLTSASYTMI

SMILES | IC50 (human Gal-3 (hGal-3)) [nM] | IC50 (human Gal-1 (hGal-1)) [nM]
CO[C@@H]1[C@@H](n2cc(-c3ccc(C)c(F)c3F)nn2)[C@@H](O)[C@@H](CO)O[C@@H]1Cc1cn(C2(C)COC2)nn1 [Ex 1.1.6.] | 40 | 2210
CO[C@@H]1[C@@H](n2cc(-c3ccc(F)c(F)c3F)nn2)[C@@H](O)[C@@H](CO)O[C@@H]1Cn1cc(C2CCCC2)nn1 [Ex 3.2.32.] | 60 | 1150
CO[C@@H]1[C@@H](n2cc(-c3ccc(F)c(F)c3F)nn2)[C@@H](O)[C@@H](CO)O[C@@H]1Cc1cn(C2(C)CC2)nn1 [Ex 3.1.23.] | 50 | 390
CO[C@@H]1[C@@H](n2cc(-c3ccc(F)c(F)c3F)nn2)[C@@H](O)[C@@H](CO)O[C@@H]1Cc1cn([C@]2(C)C[C@H](O)C2)nn1 [Ex 3.1.19.] | 60 | 260
COCC1(n2cc(C[C@H]3O[C@H](CO)[C@H](O)[C@H](n4cc(-c5ccc(F)c(F)c5F)nn4)[C@H]3OC)nn2)COC1 [Ex 3.1.21.] | 60 | 770
CO[C@@H]1[C@@H](n2cc(-c3ccc(Br)c(F)c3F)nn2)[C@@H](O)[C@@H](CO)O[C@@H]1Cc1cn(C23CC(C)(C2)C3)nn1 [Ex 4.1.14., (2R,3R,4S,5R,6R)-4-(4-(4-bromo-2,3-difluorophenyl)-1H-1,2,3-triazol-1-yl)-2-(hydroxymethyl)-5-methoxy-6-((1-(3-methylbicyclo[1.1.1]pentan-1-yl)-1H-1,2,3-triazol-4-yl)methyl)tetrahydro-2H-pyran-3-ol] | 60 | 1360
CO[C@@H]1[C@@H](n2cc(-c3ccc(Cl)c(F)c3F)nn2)[C@@H](O)[C@@H](CO)O[C@@H]1Cc1cn([C@@H]2CCC[C@@H]2F)nn1 [Example 2.1.79.A, (2R,3R,4S,5R,6R)-4-(4-(4-chloro-2,3-difluorophenyl)-1H-1,2,3-triazol-1-yl)-6-((1-((1R,2S)-2-fluorocyclopentyl)-1H-1,2,3-triazol-4-yl)methyl)-2-(hydroxymethyl)-5-methoxytetrahydro-2H-pyran-3-ol] | 20 | 1510
CO[C@@H]1[C@@H](n2cc(-c3ccc(Cl)c(F)c3F)nn2)[C@@H](O)[C@@H](CO)O[C@@H]1Cc1cn(C2(CF)COC2)nn1 [Ex 2.1.52., (2R,3R,4S,5R,6R)-4-(4-(4-chloro-2,3-difluorophenyl)-1H-1,2,3-triazol-1-yl)-6-((1-(3-(fluoromethyl)oxetan-3-yl)-1H-1,2,3-triazol-4-yl)methyl)-2-(hydroxymethyl)-5-methoxytetrahydro-2H-pyran-3-ol [1-(1,2,3-tri-deoxy-2-methoxy-3-[4-(4-chloro-2,3-difluorophenyl)-1H-1,2,3-triazol-1-yl]-α-D-galacto-pyranose)-1-(1-(3-fluoromethyl-3-oxetanyl)-1H-triazol-4-yl)-methane]] | 20 | 650
CO[C@@H]1[C@@H](n2cc(-c3ccc(C)c(F)c3F)nn2)[C@@H](O)[C@@H](CO)O[C@@H]1Cc1cn([C@@H]2COCC[C@H]2O)nn1 [Ex 1.1.1.] | 50 | 2610
CO[C@@H]1[C@@H](n2cc(-c3ccc(Cl)c(F)c3F)nn2)[C@@H](O)[C@@H](CO)O[C@@H]1Cc1cn(C23CC(C2)C3)nn1 [Ex 2.1.12.] | 50 | 3250
CO[C@@H]1[C@@H](n2cc(-c3ccc(C)c(F)c3F)nn2)[C@@H](O)[C@@H](CO)O[C@@H]1Cc1cn(C23CC(C)(C2)C3)nn1 [Ex 1.1.14.] | 40 | 2610
CO[C@@H]1[C@@H](n2cc(-c3ccc(F)c(F)c3F)nn2)[C@@H](O)[C@@H](CO)O[C@@H]1Cn1cc(C23CC(C2)C3)nn1 [Ex 3.2.12.] | 40 | 970
CO[C@@H]1[C@@H](n2cc(-c3ccc(C)c(F)c3F)nn2)[C@@H](O)[C@@H](CO)O[C@@H]1Cc1cn(C(C)(C)CO)nn1 [Ex 1.1.9.] | 70 | 44000
CO[C@@H]1[C@@H](n2cc(-c3ccc(Cl)c(F)c3F)nn2)[C@@H](O)[C@@H](CO)O[C@@H]1Cc1cn(C2(C(F)(F)F)CC3CCC2C3)nn1 (some centres unmarked) [Ex 2.1.70.] | 50 | 830
CO[C@@H]1[C@@H](n2cc(-c3ccc(F)c(F)c3F)nn2)[C@@H](O)[C@@H](CO)O[C@@H]1Cc1cn(C23CCOC(C)(C2)C3)nn1 [Ex 3.1.62.] | 60 | 810
CO[C@@H]1[C@@H](n2cc(-c3ccc(Cl)c(F)c3F)nn2)[C@@H](O)[C@@H](CO)O[C@@H]1Cc1cn([C@@]2(C(F)(F)F)C[C@H]3C[C@H]3C2)nn1 [Ex 2.1.69.] | 40 | 470
CO[C@@H]1[C@@H](n2cc(-c3ccc(Cl)c(F)c3F)nn2)[C@@H](O)[C@@H](CO)O[C@@H]1Cn1cc(C2(O)CCCC2)nn1 [Ex 2.2.33.] | 80 | 4780

SMILES | IC50 (human Gal-3 (hGal-3)) [nM] | IC50 (human Gal-1 (hGal-1)) [nM]
CO[C@@H]1[C@@H](n2cc(-c3ccc(Br)c(F)c3F)nn2)[C@@H](O)[C@@H](CO)O[C@@H]1Cc1cn(C2(C)COC2)nn1 [Ex 4.1.6.] | 40 | 1460
CO[C@@H]1[C@@H](n2cc(-c3ccc(Cl)c(F)c3F)nn2)[C@@H](O)[C@@H](CO)O[C@@H]1Cc1cn([C@@H]2COC[C@H]2F)nn1 (single isomer, unassigned) [Example 2.1.74.D, (2R,3R,4S,5R,6R)-4-(4-(4-chloro-2,3-difluorophenyl)-1H-1,2,3-triazol-1-yl)-6-((1-((3R*,4S*)-4-fluorotetrahydrofuran-3-yl)-1H-1,2,3-triazol-4-yl)methyl)-2-(hydroxymethyl)-5-methoxytetrahydro-2H-pyran-3-ol] | 70 | 3540
CO[C@@H]1[C@@H](n2cc(-c3ccc(F)c(F)c3F)nn2)[C@@H](O)[C@@H](CO)O[C@@H]1Cn1cc(C2(C)CCC2)nn1 [Ex 3.2.13.] | 80 | 670
CO[C@@H]1[C@@H](n2cc(-c3ccc(C#N)c(F)c3F)nn2)[C@@H](O)[C@@H](CO)O[C@@H]1Cc1cn(C2(C(F)F)COC2)nn1 [Ex 5.1.53., 4-(1-((2R,3R,4S,5R,6R)-2-((1-(3-(Difluoromethyl)oxetan-3-yl)-1H-1,2,3-triazol-4-yl)methyl)-5-hydroxy-6-(hydroxymethyl)-3-methoxytetrahydro-2H-pyran-4-yl)-1H-1,2,3-triazol-4-yl)-2,3-difluorobenzonitrile] | 60 | 1350
CO[C@@H]1[C@@H](n2cc(-c3ccc(Cl)c(F)c3F)nn2)[C@@H](O)[C@@H](CO)O[C@@H]1Cc1cn([C@]2(C)C[C@H](O)C2)nn1 [Ex 2.1.19.] | 40 | 630
CO[C@@H]1[C@@H](n2cc(-c3ccc(C)c(F)c3F)nn2)[C@@H](O)[C@@H](CO)O[C@@H]1Cn1cc(C2CCCC2)nn1 [Ex 1.2.32.] | 60 | 5130
CO[C@@H]1[C@@H](n2cc(-c3ccc(F)c(F)c3F)nn2)[C@@H](O)[C@@H](CO)O[C@@H]1Cc1cn(C2(CF)CC2)nn1 [Ex 3.1.46., (2R,3R,4S,5R,6R)-6-((1-(1-(fluoromethyl)cyclopropyl)-1H-1,2,3-triazol-4-yl)methyl)-2-(hydroxymethyl)-5-methoxy-4-(4-(2,3,4-trifluorophenyl)-1H-1,2,3-triazol-1-yl)tetrahydro-2H-pyran-3-ol] | 70 | 400
CO[C@@H]1[C@@H](n2cc(-c3ccc(Br)c(F)c3F)nn2)[C@@H](O)[C@@H](CO)O[C@@H]1Cc1cn(C(C)(C)C(F)F)nn1 [Ex 4.1.28.] | 50 | 1020
CO[C@@H]1[C@@H](n2cc(-c3ccc(F)c(F)c3F)nn2)[C@@H](O)[C@@H](CO)O[C@@H]1Cc1cn(C23CC(C2)C3)nn1 [Ex 3.1.12.] | 60 | 950
CO[C@@H]1[C@@H](n2cc(-c3ccc(Cl)c(F)c3F)nn2)[C@@H](O)[C@@H](CO)O[C@@H]1Cc1cn(C2CCCCC2(F)F)nn1 (single isomer, unassigned) [Example 2.1.80.A] | 20 | 1020
CO[C@@H]1[C@@H](n2cc(-c3ccc(F)c(F)c3F)nn2)[C@@H](O)[C@@H](CO)O[C@@H]1Cc1cn(C2(C(F)(F)F)CCC2)nn1 [Ex 3.1.55., (2R,3R,4S,5R,6R)-2-(hydroxymethyl)-5-methoxy-6-((1-(1-(trifluoromethyl)cyclobutyl)-1H-1,2,3-triazol-4-yl)methyl)-4-(4-(2,3,4-trifluorophenyl)-1H-1,2,3-triazol-1-yl)tetrahydro-2H-pyran-3-ol] | 40 | 180
CO[C@@H]1[C@@H](n2cc(-c3ccc(Cl)c(F)c3F)nn2)[C@@H](O)[C@@H](CO)O[C@@H]1Cc1cn(C23CC(C)(C2)C3)nn1 [Ex 2.1.14.] | 50 | 3450
CO[C@@H]1[C@@H](n2cc(-c3ccc(Cl)c(F)c3F)nn2)[C@@H](O)[C@@H](CO)O[C@@H]1Cc1cn(C2CC(C(F)(F)F)(C(F)(F)F)C2)nn1 [Ex 2.1.57.] | 500 | 28100
CO[C@@H]1[C@@H](n2cc(-c3ccc(F)c(F)c3F)nn2)[C@@H](O)[C@@H](CO)O[C@@H]1Cc1cn(C2(CO)CC(F)(F)C2)nn1 [Ex 3.1.18.] | 90 | 1390
CO[C@@H]1[C@@H](n2cc(-c3ccc(F)c(F)c3F)nn2)[C@@H](O)[C@@H](CO)O[C@@H]1Cc1cn(C2CC3(COC3)C2)nn1 [Ex 3.1.16.] | 120 | 1110
CO[C@@H]1[C@@H](n2cc(-c3ccc(Cl)c(F)c3F)nn2)[C@@H](O)[C@@H](CO)O[C@@H]1Cc1cn(C23CC(C(F)(F)F)(C2)C3)nn1 [Ex 2.1.24.] | 80 | 6700
CO[C@@H]1[C@@H](n2cc(-c3ccc(Cl)c(F)c3F)nn2)[C@@H](O)[C@@H](CO)O[C@@H]1Cc1cn(C2CC3(COC3)C2)nn1 [Ex 2.1.16.] | 90 | 5930
